Source: ChEMBL document CHEMBL1201862, “PubChem BioAssay data set” (2004)
Active and inactive are the calls of the source.

Columns and labels:
[1] = target: Protein-arginine deiminase type-4 (Homo sapiens, UniProt Q9UM07); assay: IC50 against protein arginine deiminase 4 – biochemical, fluorescence readout, dose response (AID 492970)
NADPH oxidase 3 = NADPH oxidase 3 (Homo sapiens, UniProt Q9HBY0); assay: PubChem AID 435013
NADPH oxidase 4 = NADPH oxidase 4 (Homo sapiens, UniProt Q9NPH5); assay: PubChem AID 435013
NADPH oxidase 1 [2] = target: T1, NADPH oxidase 1 (Homo sapiens, UniProt Q9Y5S8); assay: potency of NOX1 inhibition in cells – cell-based, luminescence, cherry picks 2, dose response (AID 434997); type: functional
T1 sequence (Q9Y5S8 whole entry): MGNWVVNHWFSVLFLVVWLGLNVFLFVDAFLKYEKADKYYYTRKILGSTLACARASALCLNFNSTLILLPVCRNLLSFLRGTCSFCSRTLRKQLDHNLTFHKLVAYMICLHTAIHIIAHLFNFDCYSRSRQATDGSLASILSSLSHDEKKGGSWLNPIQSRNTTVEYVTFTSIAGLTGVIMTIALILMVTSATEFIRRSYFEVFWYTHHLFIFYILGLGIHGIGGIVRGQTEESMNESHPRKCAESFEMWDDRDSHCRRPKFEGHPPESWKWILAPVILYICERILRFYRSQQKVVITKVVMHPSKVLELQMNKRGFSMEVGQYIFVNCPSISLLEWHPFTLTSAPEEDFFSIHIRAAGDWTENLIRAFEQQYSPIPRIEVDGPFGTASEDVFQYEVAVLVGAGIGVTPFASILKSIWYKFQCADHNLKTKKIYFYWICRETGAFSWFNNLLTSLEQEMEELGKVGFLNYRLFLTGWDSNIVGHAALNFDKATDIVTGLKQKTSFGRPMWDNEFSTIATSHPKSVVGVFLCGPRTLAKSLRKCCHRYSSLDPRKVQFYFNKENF

NADPH oxidase 1 [3] = target: T1, NADPH oxidase 1; assay: HEK293 ROS counter-screen potency – cell-based, IC50, set 2, counter-screen for NOX1 inhibitor project, late-stage follow-up (AID 435002); type: functional
NADPH oxidase 2 = NADPH oxidase 2 (Homo sapiens, UniProt P04839); assay: PubChem AID 435013
[4] = target: T2, Tyrosine-protein phosphatase non-receptor type 7 (Homo sapiens, UniProt P35236); assay: redox-active compounds inhibiting HePTP phosphatase – biochemical, fluorescence, mechanism study (AID 2068); type: functional
T2 sequence (P35236 whole entry): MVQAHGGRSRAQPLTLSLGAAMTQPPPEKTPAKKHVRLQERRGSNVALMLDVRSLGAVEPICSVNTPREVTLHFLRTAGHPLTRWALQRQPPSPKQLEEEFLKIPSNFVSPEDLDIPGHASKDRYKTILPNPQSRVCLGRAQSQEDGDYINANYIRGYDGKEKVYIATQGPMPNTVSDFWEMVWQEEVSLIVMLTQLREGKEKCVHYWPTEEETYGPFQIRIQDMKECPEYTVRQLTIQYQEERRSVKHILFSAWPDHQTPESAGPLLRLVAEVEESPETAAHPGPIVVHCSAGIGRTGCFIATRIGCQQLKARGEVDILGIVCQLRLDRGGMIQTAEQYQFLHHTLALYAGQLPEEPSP

[5] = target: T3, Tyrosine-protein phosphatase non-receptor type 22 (Homo sapiens, UniProt Q9Y2R2); assay: SAR LYP1 Fluorescent Assay using OMFP substrate for In Vitro dose response studies - Set 3. [Related pubchem assays (depositor defined):AID1779, AID1784, AID2140, AID2686]; type: functional
T3 sequence (Q9Y2R2 whole entry): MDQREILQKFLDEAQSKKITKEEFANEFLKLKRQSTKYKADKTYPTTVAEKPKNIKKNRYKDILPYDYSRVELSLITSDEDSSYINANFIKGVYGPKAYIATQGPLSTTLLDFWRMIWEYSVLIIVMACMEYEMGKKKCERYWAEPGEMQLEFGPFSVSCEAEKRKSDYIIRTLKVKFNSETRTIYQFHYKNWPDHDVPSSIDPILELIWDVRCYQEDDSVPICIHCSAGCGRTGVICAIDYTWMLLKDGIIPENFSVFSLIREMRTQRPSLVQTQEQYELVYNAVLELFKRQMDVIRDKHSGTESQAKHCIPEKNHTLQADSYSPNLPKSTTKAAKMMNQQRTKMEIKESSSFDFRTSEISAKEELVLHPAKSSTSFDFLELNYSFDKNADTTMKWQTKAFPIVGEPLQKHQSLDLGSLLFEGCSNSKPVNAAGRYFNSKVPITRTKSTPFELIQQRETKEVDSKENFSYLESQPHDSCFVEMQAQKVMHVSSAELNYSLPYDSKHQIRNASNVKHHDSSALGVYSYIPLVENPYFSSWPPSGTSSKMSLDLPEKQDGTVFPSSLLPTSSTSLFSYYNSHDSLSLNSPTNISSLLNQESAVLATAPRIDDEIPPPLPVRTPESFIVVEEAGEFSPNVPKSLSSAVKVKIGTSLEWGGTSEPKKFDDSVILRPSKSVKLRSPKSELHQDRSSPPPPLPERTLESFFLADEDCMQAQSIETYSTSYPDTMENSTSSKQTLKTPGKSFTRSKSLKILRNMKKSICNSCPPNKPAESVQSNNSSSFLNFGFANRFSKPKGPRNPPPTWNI

[6] = target: T4, Small ubiquitin-related modifier 1 (Homo sapiens, UniProt P63165); assay: SUMO1 protein interaction blockers, potency – biochemical, fluorescence polarization, uHTS hits, dose response (AID 624382); type: functional; conditions: read-out: IC50_Mean
[7] = target: Tyrosine-protein phosphatase non-receptor type 12 (Homo sapiens, UniProt Q05209); assay: SAR Selectivity Analysis of small molecule inhibitors of PEST using pCAP in a fluorescence assay. [Related pubchem assays (depositor defined):AID1779, AID1784, AID2135]; type: functional
[8] = target: T3, Tyrosine-protein phosphatase non-receptor type 22; assay: inhibition of lymphoid tyrosine phosphatase LYP – biochemical, pCAP fluorogenic substrate, fluorescence, set 3, SAR follow-up (AID 449727); type: functional
[9] = target: T5, Dual specificity protein phosphatase 6 (Rattus norvegicus, UniProt Q64346); type: functional;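 also: confirmatory in vitro dose-response testing of MKP-3 inhibition; recombinant His-tagged MKP-3 made in E. coli BL21 with OMFP substrate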
T5 sequence (Q64346 whole entry): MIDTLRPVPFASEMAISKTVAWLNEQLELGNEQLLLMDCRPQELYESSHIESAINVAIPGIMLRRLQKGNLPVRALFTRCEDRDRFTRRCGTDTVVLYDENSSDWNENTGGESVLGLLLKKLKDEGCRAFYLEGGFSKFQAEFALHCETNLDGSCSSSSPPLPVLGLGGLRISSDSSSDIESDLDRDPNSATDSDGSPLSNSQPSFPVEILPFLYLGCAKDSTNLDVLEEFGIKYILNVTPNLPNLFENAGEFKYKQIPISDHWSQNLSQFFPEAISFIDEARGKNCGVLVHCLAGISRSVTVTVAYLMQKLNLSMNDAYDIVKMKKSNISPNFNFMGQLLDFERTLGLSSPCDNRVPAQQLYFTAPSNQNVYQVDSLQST

[10] = target: DNA (cytosine-5)-methyltransferase 1 (Homo sapiens, UniProt P26358); assay: inhibition of DNA methylation by DNMT1 – biochemical, fluorescent molecular beacon, confirmation (AID 602386); type: functional
[11] = target: T6, Dual specificity protein phosphatase 3 (Homo sapiens, UniProt P51452); assay: MOA VHR1 Fluorescent secondary assay for identification of redox-state modulating compounds. [Related pubchem assays (depositor defined):AID1654, AID1661, AID1878, AID1957]
[12] = target: T7, Low molecular weight phosphotyrosine protein phosphatase (Homo sapiens, UniProt P24666); type: functional; conditions: read-out: IC50_Mean;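 also: Dose-response confirmation assay measuring inhibition of LMPTP enzyme activity by fluorescence intensity read-out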
T7 sequence (P24666 whole entry): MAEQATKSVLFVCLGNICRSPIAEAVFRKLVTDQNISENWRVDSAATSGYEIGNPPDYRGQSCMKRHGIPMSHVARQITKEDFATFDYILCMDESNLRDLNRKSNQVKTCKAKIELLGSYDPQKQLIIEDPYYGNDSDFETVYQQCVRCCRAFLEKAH

[13] = target: T3, Tyrosine-protein phosphatase non-receptor type 22; assay: PTPN22 enzyme inhibitors – biochemical, fluorescence, LYP catalytic domain, selectivity assay for LMPTP inhibitor project, dose response (AID 652006); type: functional; conditions: read-out: IC50_Mean
[14] = target: T6, Dual specificity protein phosphatase 3; assay: SAR VHR1 Fluorescent Assay for In Vitro dose response studies. [Related pubchem assays (depositor defined):AID1654, AID1661, AID1878, AID1992, AID2004, AID2070, AID2085]; type: functional
[15] = target: T6, Dual specificity protein phosphatase 3; assay: SAR VHR1 absorbance Assay for In Vitro dose response studies. [Related pubchem assays (depositor defined):AID1654, AID1661, AID1878, AID1992, AID2004]
[16] = target: T2, Tyrosine-protein phosphatase non-receptor type 7; assay: inhibition of hematopoietic tyrosine phosphatase HePTP – biochemical, set 2, SAR follow-up (AID 449736); type: functional
[17] = target: T4, Small ubiquitin-related modifier 1; assay: SUMO1 protein-protein binding blockers, potency – biochemical, FRET, dose response (AID 624383); type: functional; conditions: read-out: IC50_Mean
Hexokinase HKDC1 = target: T8, Hexokinase HKDC1 (Homo sapiens, UniProt Q2TB90); assay: activation of HKDC1 glucose phosphorylation – biochemical, W721R variant, dose response (AID 504730); type: functional
T8 sequence (Q2TB90 whole entry): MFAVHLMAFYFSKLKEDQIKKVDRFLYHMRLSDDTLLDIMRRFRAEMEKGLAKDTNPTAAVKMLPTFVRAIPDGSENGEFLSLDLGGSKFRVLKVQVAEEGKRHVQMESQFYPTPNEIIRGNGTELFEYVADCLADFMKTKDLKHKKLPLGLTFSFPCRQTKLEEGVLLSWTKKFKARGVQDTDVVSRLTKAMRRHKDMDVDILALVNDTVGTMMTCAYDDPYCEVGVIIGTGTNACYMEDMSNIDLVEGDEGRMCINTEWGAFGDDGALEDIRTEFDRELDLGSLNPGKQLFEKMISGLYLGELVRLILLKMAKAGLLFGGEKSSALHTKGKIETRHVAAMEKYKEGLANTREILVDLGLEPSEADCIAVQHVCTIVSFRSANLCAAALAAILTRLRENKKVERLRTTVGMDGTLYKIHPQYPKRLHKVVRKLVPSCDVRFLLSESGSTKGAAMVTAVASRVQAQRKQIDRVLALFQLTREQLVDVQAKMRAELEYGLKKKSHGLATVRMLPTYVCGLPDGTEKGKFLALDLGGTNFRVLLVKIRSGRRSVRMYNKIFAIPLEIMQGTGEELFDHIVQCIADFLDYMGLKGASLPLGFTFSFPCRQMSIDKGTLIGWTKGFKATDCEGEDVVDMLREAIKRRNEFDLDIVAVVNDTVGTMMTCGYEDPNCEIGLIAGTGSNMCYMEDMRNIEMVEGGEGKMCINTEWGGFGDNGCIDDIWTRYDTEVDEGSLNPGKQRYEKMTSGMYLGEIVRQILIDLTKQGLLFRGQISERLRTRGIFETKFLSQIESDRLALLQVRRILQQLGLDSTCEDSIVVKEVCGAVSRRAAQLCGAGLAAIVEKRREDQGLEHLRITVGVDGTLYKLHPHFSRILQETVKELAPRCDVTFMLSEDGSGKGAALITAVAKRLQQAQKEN

Hexokinase-1 = Hexokinase-1 (Homo sapiens, UniProt P19367); assay: HK1 enzyme activation by HKDC1 hits – biochemical, selectivity assay for HKDC1 activator project, dose response (AID 504762); type: functional
[18] = A cytotoxicity screen of small molecule inhibitors of the PhoP region in Salmonella typhi identified in the primary screen. [Related pubchem assays: 1850, 1864, 1985 ]; type: functional

T6 sequence (P51452 whole entry): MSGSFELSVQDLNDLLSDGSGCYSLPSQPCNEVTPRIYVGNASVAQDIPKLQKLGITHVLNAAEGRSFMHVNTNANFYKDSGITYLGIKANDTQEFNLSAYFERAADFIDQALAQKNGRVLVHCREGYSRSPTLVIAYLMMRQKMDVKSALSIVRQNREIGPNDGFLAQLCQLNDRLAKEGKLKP
T4 sequence (P63165 whole entry): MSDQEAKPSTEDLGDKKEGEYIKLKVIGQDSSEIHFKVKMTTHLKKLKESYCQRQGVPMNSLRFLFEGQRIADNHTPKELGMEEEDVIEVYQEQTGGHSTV
Tyrosine-protein phosphatase non-receptor type 12, sequence (Q05209 whole entry): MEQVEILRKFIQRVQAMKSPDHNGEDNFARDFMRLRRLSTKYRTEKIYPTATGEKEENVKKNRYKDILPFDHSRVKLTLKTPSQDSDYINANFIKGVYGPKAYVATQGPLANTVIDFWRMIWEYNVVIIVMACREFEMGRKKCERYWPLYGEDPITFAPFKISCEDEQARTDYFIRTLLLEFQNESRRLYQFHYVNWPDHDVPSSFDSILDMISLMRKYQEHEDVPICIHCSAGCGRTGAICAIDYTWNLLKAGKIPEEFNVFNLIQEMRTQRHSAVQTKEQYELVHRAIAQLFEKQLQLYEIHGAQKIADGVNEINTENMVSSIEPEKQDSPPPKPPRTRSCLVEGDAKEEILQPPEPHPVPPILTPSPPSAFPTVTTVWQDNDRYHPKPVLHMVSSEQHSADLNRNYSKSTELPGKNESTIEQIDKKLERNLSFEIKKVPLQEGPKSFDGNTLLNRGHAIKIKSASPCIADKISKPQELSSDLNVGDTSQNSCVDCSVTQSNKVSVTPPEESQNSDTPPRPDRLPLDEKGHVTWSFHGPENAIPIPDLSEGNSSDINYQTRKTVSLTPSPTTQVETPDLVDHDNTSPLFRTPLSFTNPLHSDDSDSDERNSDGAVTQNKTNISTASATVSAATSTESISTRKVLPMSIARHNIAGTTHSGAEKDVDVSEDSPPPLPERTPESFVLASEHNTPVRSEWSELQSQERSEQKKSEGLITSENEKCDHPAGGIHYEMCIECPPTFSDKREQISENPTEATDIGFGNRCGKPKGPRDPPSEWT
Protein-arginine deiminase type-4, sequence (Q9UM07 whole entry): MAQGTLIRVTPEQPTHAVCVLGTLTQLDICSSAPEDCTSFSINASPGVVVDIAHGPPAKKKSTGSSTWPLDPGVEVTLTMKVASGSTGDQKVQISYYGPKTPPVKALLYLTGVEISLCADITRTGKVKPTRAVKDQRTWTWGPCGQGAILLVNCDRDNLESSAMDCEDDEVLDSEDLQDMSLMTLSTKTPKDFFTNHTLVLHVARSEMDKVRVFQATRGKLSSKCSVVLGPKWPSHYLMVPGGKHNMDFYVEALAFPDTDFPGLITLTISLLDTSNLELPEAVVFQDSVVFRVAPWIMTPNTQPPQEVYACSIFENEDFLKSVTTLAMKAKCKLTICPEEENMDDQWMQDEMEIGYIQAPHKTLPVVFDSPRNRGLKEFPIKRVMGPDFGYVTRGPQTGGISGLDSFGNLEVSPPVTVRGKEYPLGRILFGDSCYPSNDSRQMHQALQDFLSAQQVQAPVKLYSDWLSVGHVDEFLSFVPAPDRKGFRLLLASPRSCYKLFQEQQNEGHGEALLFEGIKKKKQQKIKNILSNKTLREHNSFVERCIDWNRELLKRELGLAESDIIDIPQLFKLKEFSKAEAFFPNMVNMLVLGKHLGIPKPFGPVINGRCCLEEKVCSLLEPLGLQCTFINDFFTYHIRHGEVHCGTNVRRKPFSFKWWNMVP
NADPH oxidase 4, sequence (Q9NPH5 whole entry): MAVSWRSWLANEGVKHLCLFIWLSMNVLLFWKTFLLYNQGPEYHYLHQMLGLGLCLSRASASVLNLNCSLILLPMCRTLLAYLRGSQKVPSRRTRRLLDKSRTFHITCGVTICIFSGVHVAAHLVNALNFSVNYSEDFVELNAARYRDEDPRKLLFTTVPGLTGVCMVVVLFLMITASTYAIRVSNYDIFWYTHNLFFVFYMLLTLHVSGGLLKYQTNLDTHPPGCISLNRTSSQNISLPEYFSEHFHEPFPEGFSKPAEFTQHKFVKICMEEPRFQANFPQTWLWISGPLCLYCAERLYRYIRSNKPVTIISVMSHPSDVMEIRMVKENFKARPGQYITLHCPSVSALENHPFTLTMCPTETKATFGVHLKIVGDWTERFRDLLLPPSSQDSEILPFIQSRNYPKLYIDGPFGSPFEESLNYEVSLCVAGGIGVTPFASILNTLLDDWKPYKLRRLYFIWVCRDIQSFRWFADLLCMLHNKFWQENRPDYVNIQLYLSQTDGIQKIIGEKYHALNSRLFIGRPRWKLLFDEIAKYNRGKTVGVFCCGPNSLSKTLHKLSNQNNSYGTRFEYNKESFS
Hexokinase-1, sequence (P19367 whole entry): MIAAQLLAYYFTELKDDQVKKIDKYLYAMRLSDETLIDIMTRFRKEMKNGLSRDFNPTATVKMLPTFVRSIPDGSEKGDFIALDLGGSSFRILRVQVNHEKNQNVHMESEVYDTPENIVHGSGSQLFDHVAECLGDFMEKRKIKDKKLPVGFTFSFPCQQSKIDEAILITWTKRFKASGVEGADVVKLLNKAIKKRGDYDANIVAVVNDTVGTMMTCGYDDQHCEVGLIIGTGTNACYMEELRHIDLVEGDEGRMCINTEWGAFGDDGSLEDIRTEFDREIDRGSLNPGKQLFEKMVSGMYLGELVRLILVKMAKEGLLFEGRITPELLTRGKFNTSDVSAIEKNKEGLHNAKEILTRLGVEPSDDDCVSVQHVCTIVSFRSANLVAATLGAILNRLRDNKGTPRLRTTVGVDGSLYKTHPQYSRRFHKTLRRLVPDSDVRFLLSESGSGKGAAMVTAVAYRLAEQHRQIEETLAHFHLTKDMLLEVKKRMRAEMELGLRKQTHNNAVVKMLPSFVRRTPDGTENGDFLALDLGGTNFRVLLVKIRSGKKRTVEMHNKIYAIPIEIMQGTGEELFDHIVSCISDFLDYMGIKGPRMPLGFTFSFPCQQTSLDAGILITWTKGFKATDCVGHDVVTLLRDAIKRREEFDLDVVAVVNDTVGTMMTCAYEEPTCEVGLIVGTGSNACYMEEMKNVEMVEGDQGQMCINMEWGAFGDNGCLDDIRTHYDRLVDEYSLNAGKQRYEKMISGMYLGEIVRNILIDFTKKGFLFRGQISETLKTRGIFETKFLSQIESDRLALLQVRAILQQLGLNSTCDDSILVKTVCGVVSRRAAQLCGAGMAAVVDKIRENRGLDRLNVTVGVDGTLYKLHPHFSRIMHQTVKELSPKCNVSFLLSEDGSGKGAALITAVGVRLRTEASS
NADPH oxidase 2, sequence (P04839 whole entry): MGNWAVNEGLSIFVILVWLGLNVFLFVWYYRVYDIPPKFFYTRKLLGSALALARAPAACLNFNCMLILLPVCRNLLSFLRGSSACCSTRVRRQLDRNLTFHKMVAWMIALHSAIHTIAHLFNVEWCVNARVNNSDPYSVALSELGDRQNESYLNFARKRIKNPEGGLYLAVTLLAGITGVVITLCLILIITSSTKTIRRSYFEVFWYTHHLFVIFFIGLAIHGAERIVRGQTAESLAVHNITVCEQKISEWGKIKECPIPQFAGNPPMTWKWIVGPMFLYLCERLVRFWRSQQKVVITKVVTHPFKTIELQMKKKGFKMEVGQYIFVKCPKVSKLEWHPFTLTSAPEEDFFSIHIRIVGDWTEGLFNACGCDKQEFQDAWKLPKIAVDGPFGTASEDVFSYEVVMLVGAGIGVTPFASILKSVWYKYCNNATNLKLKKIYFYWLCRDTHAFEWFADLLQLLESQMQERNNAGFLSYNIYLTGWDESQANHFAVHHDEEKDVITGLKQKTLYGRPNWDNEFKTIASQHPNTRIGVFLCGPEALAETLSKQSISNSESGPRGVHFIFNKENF
NADPH oxidase 3, sequence (Q9HBY0 whole entry): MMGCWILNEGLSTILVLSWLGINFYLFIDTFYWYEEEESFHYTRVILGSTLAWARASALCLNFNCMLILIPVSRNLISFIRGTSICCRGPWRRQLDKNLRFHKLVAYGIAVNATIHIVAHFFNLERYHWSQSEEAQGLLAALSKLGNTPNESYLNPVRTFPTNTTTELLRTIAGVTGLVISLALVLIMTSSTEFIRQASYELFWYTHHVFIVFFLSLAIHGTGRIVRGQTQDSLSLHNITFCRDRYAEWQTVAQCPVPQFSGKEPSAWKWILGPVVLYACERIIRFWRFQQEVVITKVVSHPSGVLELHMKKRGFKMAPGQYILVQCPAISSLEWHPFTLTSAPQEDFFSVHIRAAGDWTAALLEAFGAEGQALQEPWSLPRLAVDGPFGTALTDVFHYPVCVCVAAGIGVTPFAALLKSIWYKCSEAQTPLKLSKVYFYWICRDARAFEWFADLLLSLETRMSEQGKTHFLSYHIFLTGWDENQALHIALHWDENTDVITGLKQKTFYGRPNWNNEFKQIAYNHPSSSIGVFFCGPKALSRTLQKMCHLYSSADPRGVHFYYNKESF

Compound: CC(=O)c1cc([N+](=O)[O-])c(Sc2ccc(Cl)cc2)s1
- IC50 [1]: 92 µM (inactive)

Compound: CN(C)c1ccc(/C=N/Nc2c(Cl)cncc2Cl)cc1
- IC50 (NADPH oxidase 3): 20 µM (inactive)
- IC50 (NADPH oxidase 4): 9 µM (active)
- IC50 (NADPH oxidase 1 [2]): 0.44 µM (active)
- IC50 (NADPH oxidase 1 [3]): 4 µM (active)
- IC50 (NADPH oxidase 2): > 10 µM (inactive)

Compound: CCOC(=O)C1=C(C)N=c2sc(=Cc3ccc(OCC(=O)O)cc3)c(=O)n2C1c1ccc(Cl)cc1 (stereo not drawn)
- IC50 [4]: 0.52 µM (active)
- IC50 [5]: 3.82 µM (active)
- IC50 [6]: > 66.6 µM (inactive)
- IC50 [7]: 2.41 µM (active)
- IC50 [8]: 2.74 µM (active)
- IC50 [9]: 41.4 µM (active)
- IC50 [10]: 8.42 µM (active)
- IC50 [11]: 2.08 µM (active)
- IC50 [12]: 12.5 µM (active)
- IC50 [13]: 12 µM (active)
- IC50 [14]: 3.2 µM (active)
- IC50 [15]: 4.23 µM (active)
- IC50 [16]: 0.419 µM (active)
- IC50 [17]: 8.82 µM (active)

Compound: Nc1nc(N2CCN(c3ccccn3)CC2)nc2ccccc12
- EC50 (Hexokinase HKDC1): 25.4 µM (inactive)
- EC50 (Hexokinase-1): 32.2 µM (inactive)
- EC50 [18]: > 50 µM (active)
